Values quoted from earlier work as cited in patent US4101650A, “Pepstatin floating minicapsules” (Zaidan Hojin Biseibutsu Kagaku Kenkyu Kai, priority 1977, dated 1978).
Where a SMILES comes first, the peptide text is derived from it. [ ]: non-standard residue; d: D form. The star is where a group is joined. Sta = CC(C)C[C@H](N)[C@@H](O)CC(=O)O; Isovaleryl = CC(C)CC(=O)*

Legend:
cathepsin D = cathepsin D (Homo sapiens, UniProt P07339)
renin = target: T1, renin (Homo sapiens, UniProt P00797)
T1 sequence (P00797 67-406): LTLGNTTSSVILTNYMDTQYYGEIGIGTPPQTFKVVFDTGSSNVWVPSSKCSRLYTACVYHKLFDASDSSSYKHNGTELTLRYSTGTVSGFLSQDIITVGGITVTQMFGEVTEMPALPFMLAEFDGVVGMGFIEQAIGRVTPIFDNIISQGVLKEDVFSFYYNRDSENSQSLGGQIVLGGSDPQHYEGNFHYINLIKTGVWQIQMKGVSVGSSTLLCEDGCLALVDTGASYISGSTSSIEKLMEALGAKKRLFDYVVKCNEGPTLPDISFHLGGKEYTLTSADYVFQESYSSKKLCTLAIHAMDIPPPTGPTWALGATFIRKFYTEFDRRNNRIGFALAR

Chain of cathepsin D (P07339 65-412, species assumed): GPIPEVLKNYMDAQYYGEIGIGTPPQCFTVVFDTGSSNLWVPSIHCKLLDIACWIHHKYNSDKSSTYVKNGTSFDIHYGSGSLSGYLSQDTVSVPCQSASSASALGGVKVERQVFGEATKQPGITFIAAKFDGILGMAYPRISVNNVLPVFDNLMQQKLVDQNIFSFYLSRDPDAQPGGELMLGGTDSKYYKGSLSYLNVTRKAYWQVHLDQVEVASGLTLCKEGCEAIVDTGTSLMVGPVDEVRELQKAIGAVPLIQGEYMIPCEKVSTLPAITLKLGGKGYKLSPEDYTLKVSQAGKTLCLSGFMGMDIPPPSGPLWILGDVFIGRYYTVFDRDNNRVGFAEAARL

inhibition of cathepsin D (cathepsin D): very strongly
inhibition of renin (renin): relative strong inhibiton
Compound: CC(C)CC(=O)N[C@H](C(=O)N[C@H](C(=O)N[C@@H](CC(C)C)[C@@H](O)CC(=O)N[C@@H](C)C(=O)N[C@@H](CC(C)C)[C@@H](O)CC(=O)O)C(C)C)C(C)C [Pepstatin, RCO-L-Val-L-Val-AHMHA-L-Ala-AHMHA] (Isovaleryl-VV[Sta]A[Sta]-OH)
inhibition of pepsin (pepsin): very strongly
